Holding throughout (type): in vivo
The test system of assay [1] is DIO-NASH mice (C57Bl/6J male mice). The experiment in a line: Total fat content in liver (morphometry, H&E), 8 weeks assay in DIO-NASH mice. The note with it: 50 mg/kg, p.o., b.i.d., vs DIO-NASH vehicle. An excerpt: The DIO-NASH mouse model is fed a high fat diet that results on non-alcoholic fat liver disease and are based on C57Bl/6J mice put on a 40% high fat diet prior to the assays. For the assessment of effect of the compounds of the invention in liver lipid content in non-alcoholic fat liver disease, 34 C57Bl/6J male mice (5-week-old at delivery), obtained from Janvier, France, were used. The DIO-NASH mice group were put on high fat diet (40% AMLN diet, D09100301 Research Diets, USA) and a control group (LEAN-CHOW) was put on a regular chow diet (Altromin 1324, Brogaarden, Denmark) for 35 weeks prior to the study.
The animals (kept in single housings) were checked minimum once daily where signs of abnormal behavior, abnormal locomotor activity, ataxia or clinical signs of disease (lack of grooming, raised fur, signs of pain upon handling, loss of excessive body-weight) were followed closely. […]
To assess the effect of compound 4a on hepatic lipid content in mice with non-alcoholic fat liver disease, DIO-NASH mice (C57Bl/6J male mice) were treated with a hydrochloride salt of compound 4a during 8 weeks (50 mg/kg, p.o., b.i.d.), versus a control of DIO-NASH mice treated with saline (0.9% NaCl) and versus LEAN-CHOW mice also treated with saline (0.9% NaCl), […]. Liver lipid content was determined by morphometry. […]

The test system is the same in assay [2]. Put plainly: Liver weight, 8 weeks assay in DIO-NASH mice. As to conditions: 50 mg/kg, p.o., b.i.d., vs DIO-NASH vehicle. The method, then:
The animals were kept and examined under the same conditions were used as in example 2.2. The liver biopsies were also carried out under the same conditions as in example 2.2.
To assess the effect of compound 4a on liver weight of mice with non-alcoholic fat liver disease, DIO-NASH mice (C57Bl/6J male mice) were treated with a hydrochloride salt of compound 4a during 8 weeks (50 mg/kg, p.o., b.i.d.), versus a pathological control of DIO-NASH mice and a non-pathological control LEAN-CHOW mice, both treated with the vehicle (0.9% NaCl). The DIO-NASH mice group were put on high fat diet (40% AMLN diet, D09100301 Research Diets, USA) and a control group (LEAN-CHOW) was put on a regular chow diet (Altromin 1324, Brogaarden, Denmark) for 35 weeks prior to the study.

For assay [3] the test system is unchanged. The experiment in a line: Differential gene expression analysis by RNAseq in liver of DIO-NASH mice. The method, then:
The effect of the compounds of the invention in the development of liver fibrosis was also studied by differential gene expression analysis by RNAseq where DIO-NASH mice (C57Bl/6J male mice) were treated with a hydrochloride salt of compound 4a during 8 weeks (50 mg/kg, p.o., b.i.d.), versus a pathological control of DIO-NASH mice and a non-pathological control LEAN-CHOW mice, both treated with the vehicle (0.9% NaCl).
The animals were kept and examined under the same conditions were used as in example 2.2. The liver biopsies were also carried out under the same conditions as in example 2.2. The DIO-NASH mice group were put on high fat diet (40% AMLN diet, D09100301 Research Diets, USA) and a control group (LEAN-CHOW) was put on a regular chow diet (Altromin 1324, Brogaarden, Denmark) for 35 weeks prior to the study.
FIGS. 12 and 13 show the effect of treatment of DIO-NASH mice with a hydrochloride salt of compound 4a versus a control DIO-NASH mice group treated with vehicle and a LEAN-CHOW […] control group also treated with vehicle, in the expression of collagen genes which are fibrosis markers: collagen type I-alpha 1 (COL1A1) and alpha 2 (COL1A2), collagen type III alpha 1 (COL3A1), collagen V alpha 1 (COL5A1), alpha 2 (COL5A2) and alpha 3 (COL5A3), collagen type VI alpha 1 (COL6A1), alpha 2 (COL6A2) and alpha 3 (COL6A3).
Results are given as expression level in RPKM for each mice group, wherein RPKM (Reads per kilo base per million mapped reads) is a method of quantifying gene expression from RNA sequencing data by normalizing for […] and the number of sequencing reads.
Date expressed as mean±s.e.m. values from 6 animals. ***P<0.001 vs. NASH vehicle.

With `COc1ccc(-c2nc(C(=O)NCCN)cc3c2[nH]c2ccccc23)cc1` [Compound 4a, N(-ethylamine)-1-benzosubstituted-β-carboline-3-carboxamide], in assay [1], the “steatosis in representative images of liver morphology (H&E)” value is reported as “diminished the steatosis”. Also, the “liver lipid content (steatosis) determined by morphometry” value in assay [1] (p<0.001) is recorded as “reduced liver lipid content”. In addition, the total liver weight result in assay [2] is given as “reduced liver weight”. For the same molecule, in assay [3] (50 mg p.o., b.i.d, 8 weeks), the “expression of CD36 (lipid metabolism)” value is reported as “decreased expression”; the “expression of Casp7 and IL18 (hepatocellular cell death)” value is reported as “increased expression”; the “expression of GLUT4 (insulin signaling)” value is “increased expression”; the “expression of MAPK and AKT (insulin signaling)” value is listed as “decreased expression”. In assay [3] (50 mg p.o., b.i.d, 8 weeks), the “expression of SQLE (lipid metabolism)” value was “increased expression”; the “fibrosis genes related to stellate cell activation, such as Col1a1, Col3a1 and TIMP1” value is listed as “reduction”; the “inflammation markers related to monocyte recruitment, such as CD68, CCR2, MAC-2” value was “reduction”. Besides, the “TLR4, TGFB and TGFBR gene expression (inflammation signaling)” value in assay [3] (50 mg/kg, p.o., b.i.d., 8 weeks) is recorded as “reduction”. In assay [3] (50 mg/kg, p.o., b.i.d., 8 weeks, vs DIO-NASH vehicle, P<0.001), the “expression of collagen genes (COL1A1, COL1A2, COL3A1, COL5A1, COL5A2, COL5A3, COL6A1, COL6A2, COL6A3)” value was “significantly reduced the expression of the collagen genes”. Also, the “number of genes regulated” value in assay [3] (8 weeks treatment, RNAseq) was “more than 2000 genes”.

For the origin of these results see patent US10857136B2, “Compounds for use in the prevention and/or treatment of non-alcoholic fat liver disease and non-alcoholic steatohepatitis” (SJT MOLECULAR RESEARCH, SL, priority 2017, dated 2020).
